Laboratory results taken from patent US9113631B2, “1,3-diaryl-substituted heterocyclic pesticides” (E I DU PONT DE NEMOURS AND COMPANY, priority 2011, dated 2015).

Test system: potato leafhopper (Empoasca fabae)
Test: Test F: control of potato leafhopper on Soleil bean plant, contact and/or systemic
Type: in vivo
Conditions: 144 h, sprayed at 250 ppm, adults on Soleil bean plant, 6 days, 24° C., read-out: control efficacy, very good to excellent: mortality
Protocol: Test compounds were formulated using a solution containing 10% acetone, 90% water and 300 ppm X-77® Spreader Lo-Foam Formula non-ionic surfactant containing alkylarylpolyoxyethylene, free fatty acids, glycols and isopropanol (Loveland Industries, Inc. Greeley, Colo., USA). The formulated compounds were applied in 1 mL of liquid through a SUJ2 atomizer nozzle with 1/8 JJ custom body (Spraying Systems Co., Wheaton, Ill., USA) positioned 1.27 cm (0.5 inches) above the top of each test unit. Test compounds were sprayed at 250 ppm and/or 50 ppm, and replicated three times. After spraying of the formulated test compound, each test unit was allowed to dry for 1 h and then a black, screened cap was placed on top. The test units were held for 6 days in a growth chamber at 25° C. and 70% relative humidity. Plant feeding damage was then visually assessed based on foliage consumed. […]
Test compounds were formulated and sprayed at 250 ppm and/or 50 ppm, and the tests were replicated three times as described for Test A. After spraying, the test units were allowed to dry for 1 h before they were post-infested with 5 potato leafhoppers (18-21-day-old adults). […] Each test unit was then visually assessed for insect mortality.

Structure (SMILES): N#CC1CCN(Cc2cn(-c3cccc(C(F)(F)F)c3)nc2-c2ccc(F)cc2)CC1 [Compound 12, 1-[[3-(4-fluorophenyl)-1-[3-(trifluoromethyl)phenyl]-1H-pyrazol-4-yl]methyl]-4-piperidinecarbonitrile]
- mortality at 250 ppm: ≥ 80%
